Results: PubChem BioAssay AID1902 (Broad Institute, 2009)
Activity calls are given as the source filed them.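 Rule for the calls: active = EC50 no more than a set limit of log units above the highest dose; inactive = the rest.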

The molecules below were run against S. pyogenes SKKanGAS, kanamycin survival, BacTiterGlo, 6 h (assay: SKKanGAS survival reduction under kanamycin, dose response, streptokinase promoter inhibitor project, SKKanGAS strain, luminescence, dose confirmation (AID 1902);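 note: lower survival reflects blocked streptokinase promoter driving kanamycin resistance gene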).
Molecule COc1ccc(-c2nn(-c3ccccc3)cc2/C=C2/SC(=S)N(CCC(=O)O)C2=O)cc1 has an EC50 of 1.83 µM.
Molecule O=C(/C=C1\NC2(CCCC2)Cc2ccccc21)C(=O)N/N=C/c1ccccc1O has an EC50 of 2.27 µM.
For Cc1cc(S(=O)(=O)NCCC2=CCCCC2)ccc1Br, the EC50 was 5.43 µM.
For CCc1ccc(S(=O)(=O)/N=C2\C=C(Nc3ccc(C(=O)O)cc3)C(=O)c3ccccc32)cc1, the EC50 was 0.444 µM.
O=C(c1ccc(F)cc1)c1cc2ccc(O)cc2oc1=O was tested, and the EC50 was 7.31 µM.
Work on Cc1cc(C)c2nc(SCCc3ccccc3)nc(C)c2c1 yielded an EC50 of 5.85 µM.
In the case of CCCCOc1ccc(-c2c(C#N)c(N)nc(SCC(N)=O)c2C#N)cc1, the EC50 is reported as 4.61 µM.
In the case of Cc1ccc(C(=O)NNC(=S)NC(=O)c2ccccc2)cc1, the EC50 is reported as 0.955 µM.
With c1ccc(/N=C2\N=C(Nc3ccccn3)c3ccccc32)nc1 the EC50 was 2.44 µM.
With O=C(CN1C(=O)COc2ccc(S(=O)(=O)N3CCCCC3)cc21)NCc1ccc(F)cc1 the EC50 was > 15 µM (inactive).
Cc1ccc(C)c(NC(=O)CSc2nc3nc(-c4cccs4)cc(C(F)(F)F)c3c(=O)[nH]2)c1 showed an EC50 of 3.18 µM.
Work on Cc1ccc(NC(=O)c2nc[nH]c2C(=O)N[C@@H](CCCCNC(=O)OC(C)(C)C)C(=O)OC(C)(C)C)cc1 yielded an EC50 of 3.76 µM.
In the case of Cc1ccccc1N1CCN(C(=O)CCN2C(=O)c3ccccc3C2=O)CC1, the EC50 is reported as > 15 µM (inactive).
For C=C(C)COc1ccc(-c2nc(N)ncc2Oc2ccc(OC)cc2)c(O)c1, the EC50 was 6.59 µM.
O=C(NC(NC(=S)Nc1c(Cl)cccc1Cl)C(Cl)(Cl)Cl)OCc1ccccc1 (stereo not drawn) was tested, and the EC50 was 2.5 µM.
Molecule COc1ccc(/C=C/C(=O)NC(=S)NNC(=O)Cc2cccs2)cc1 has an EC50 of 1.23 µM.
For Cc1oc(-c2ccccc2Cl)nc1Cn1cccc1C1=NC(c2ccccc2)CO1 (stereo not drawn), the EC50 was > 15 µM (inactive).
For O=C(/C=C/c1cccc([N+](=O)[O-])c1)c1ccc([N+](=O)[O-])o1, the EC50 was 2.88 µM.
For CN(CC1CCCO1)S(=O)(=O)c1ccc(C(=O)Nc2nnc(-c3ccccc3)o2)cc1 (stereo not drawn), the EC50 was 2.62 µM.
Molecule CC(=O)NC[C@H]1CN(c2ccc(N3CCOCC3)c(F)c2)C(=O)O1 has an EC50 of 0.158 µM.
CN(C)CCOc1ccc(/C(=C(/CCCl)c2ccccc2)c2ccccc2)cc1 showed an EC50 of 4.95 µM.
In the case of CC(Oc1ccc(Cl)cc1)C(=O)NNC(=S)NC(=O)c1ccco1 (stereo not drawn), the EC50 is reported as 0.325 µM.
For O=C(O)CN1C(=O)/C(=C\c2cc(Br)ccc2OCc2ccc(Cl)cc2)SC1=S, the EC50 was 1.56 µM.
For COc1cccc(N2C(=O)C3NN=C(C(=O)CN4C(=O)c5ccccc5C4=O)C3C2=O)c1 (stereo not drawn), the EC50 was > 15 µM (inactive).
With CC(C)Cn1c(=O)c(C(=O)Nc2ccncc2)c(O)c2ccccc21 the EC50 was 4.17 µM.
Cc1cc(C)c2nc(NNC(=O)c3cc(=O)c4ccccc4o3)sc2c1 showed an EC50 of 0.165 µM.
Molecule Cc1cccc(C)c1OCC(O)Cn1c2ccccc2c2ccccc21 (stereo not drawn) has an EC50 of 3.83 µM.
Cn1ncc2c(Nc3ccc(Cl)c(Cl)c3)ncnc21 was tested, and the EC50 was 4.82 µM.
CCCCNC(=O)c1ccc(NC(C)=O)c(Cl)c1 was tested, and the EC50 was > 15 µM (inactive).
With Cc1ccc(C(=O)NNC(=S)NC(=O)c2ccc(Cl)cc2)cc1 the EC50 was 0.074 µM.
COc1ccc(C(CNC(=O)c2cccc(S(=O)(=O)Nc3ccccc3Cl)c2)N2CCOCC2)cc1 (stereo not drawn) showed an EC50 of 11.1 µM.
Molecule O=C(/C=C/c1ccco1)Oc1cc(Br)cc(/C=N/NC(=O)c2ccccc2O)c1 has an EC50 of 1.11 µM.
CCC[C@@H]1C[C@@]1(CCC)[C@@H](NP(=O)(c1ccccc1)c1ccccc1)c1ccc(C(=O)OC)cc1 gave an EC50 of 2.14 µM.
With Cc1ccc(C(=O)N2CCOCC2)cc1S(=O)(=O)N1CCOCC1 the EC50 was > 15 µM (inactive).
For O=C(CCCCCNC(=O)c1ccccc1)N=Nc1c(O)[nH]c2c(Br)cc(Br)cc12, the EC50 was 5.43 µM.
With O=C(NCc1ccccc1)C(=O)Nc1nc(-c2ccccc2)cs1 the EC50 was 5.23 µM.
In the case of CCS(=O)(=O)N1Cc2ccccc2CC1C(=O)Nc1nnc(SCc2ccc(F)cc2)s1 (stereo not drawn), the EC50 is reported as 2.35 µM.
In the case of COc1ccccc1C(=O)NNC(=O)C(=O)Nc1ccc(C)c(Cl)c1, the EC50 is reported as 1.65 µM.
Molecule CCCCC/C=C\C/C=C\C/C=C\C/C=C\CCCC(=O)Nc1ccc(O)cc1 has an EC50 of 1.2 µM.
Cc1nc2ccccc2n1/N=C/c1ccc([N+](=O)[O-])s1 gave an EC50 of 2.39 µM.
CCOC(=O)c1nn(-c2cccc(OC)c2)c2nc(Nc3ccccc3)cc(=O)n12 was tested, and the EC50 was 4.15 µM.
Work on O=C(NC(Cc1c[nH]c2ccccc12)C(=O)N/N=C/c1cccc2ccccc12)c1cccs1 (stereo not drawn) yielded an EC50 of 5.37 µM.
Molecule O=C(NNC(=S)NC(=O)c1ccccc1)c1ccc(O)cc1 has an EC50 of 2.26 µM.
In the case of O=c1c2ccccc2c(-c2ccccc2)nn1Cc1c(Cl)cccc1Cl, the EC50 is reported as 6.08 µM.
In the case of COc1ccc(/C=c2\s/c(=C/C(=O)c3ccc(C)cc3)[nH]c2=O)cc1OC, the EC50 is reported as 9.28 µM.
Work on O=C(/C=C/c1ccc(F)cc1)NC(=S)NNC(=O)c1cnccn1 yielded an EC50 of 1.96 µM.
Cc1cc([N+](=O)[O-])cc(/C=N\NC(=O)C2COc3ccccc3O2)c1O (stereo not drawn) showed an EC50 of 1.52 µM.
CCOC(=O)/C(=N\Nc1ccc(OC)cc1)c1csc(Nc2ccccc2)n1 gave an EC50 of 2.45 µM.
Work on Cc1cccc(/C=C/C(=O)c2ccc([N+](=O)[O-])o2)c1 yielded an EC50 of 4.81 µM.
Molecule Cc1cccc2sc(NC(=O)c3ccc(NS(=O)(=O)c4cccs4)cc3)nc12 has an EC50 of 1.27 µM.
For CCOC(=O)c1cnn(-c2nc(-c3ccccc3F)cs2)c1C(F)(F)F, the EC50 was 10.9 µM.
In the case of COc1cccc(COC(=O)c2sc3nc4n(c(=O)c3c2C)CCC4)c1OC, the EC50 is reported as 4.76 µM.
Work on O=C(Nc1scc(-c2ccc(Br)cc2)c1C(=O)O)c1ccccc1F yielded an EC50 of 1.86 µM.
